We go through seven molecules from publication PMC11278233, “The Composition of Triterpene Glycosides in the Sea Cucumber Psolus peronii: Anticancer Activity of the Glycosides against Three Human Breast Cancer Cell Lines and Quantitative Structure–Activity Relationships (QSAR)” (Marine Drugs, 2024).

Read-outs that look alike come from different tables or passages of the source.

Series [1] relates to human erythrocytes. In words: Hemolytic activity. Format: cell-based. To be noted: for IC50: Erythrocyte, 1 h at 37 °C, lysis of 50% of erythrocytes. As for the experimental part:
A total of 450 g of human blood (B(III) Rh+) was used to obtain erythrocytes by centrifuging it three times for 5 min with phosphate-buffered saline (PBS) (pH 7.4) at 4 °C on the centrifuge LABOFUGE 400R (Heraeus, Hanau, Germany). Ice-cold PBS (pH 7.4) was used for resuspension of the erythrocyte residue to a final optical density of 1.5 at 700 nm, which was kept on ice. Then, 20 µL of the tested compound solutions was added to 180 µL of the erythrocyte suspension in V-bottom 96-well plates and exposed for 1 h at 37 °C. The layers were separated by centrifugation at 900 g for 10 min on the laboratory centrifuge LMC-3000 (Biosan, Riga, Latvia). A total of 100 µL of the supernatant was carefully decanted and transferred into a new flat plate. The values of erythrocyte lysis were measured on a microplate photometer Multiskan FC (Thermo Fisher Scientific, Waltham, MA, USA) at λ = 570 nm as the hemoglobin concentration in the supernatant. […] All the experiments were carried out in triple repetitions; p ≤ 0.05.

Series [2] relates to triple-negative human breast cancer cell line MDA-MB-231. In words: cells. Format: cell-based. Conditions: for Selectivity Index MDA-MB-231: ratio of IC50 for healthy (MCF-10A) and cancer cells.
Series [3] relates to human breast cancer cell line MCF-7. In words: cells. The class given is cell-based. Conditions: for Selectivity Index MCF-7: ratio of IC50 for healthy (MCF-10A) and cancer cells.
The subject of series [4] is human breast cancer cell line T-47D. In words: cells. Format: cell-based. To be noted: for Selectivity Index T-47D: ratio of IC50 for healthy (MCF-10A) and cancer cells.
Series [5] is described as follows: in vitro. Format: cell-based, human. To be noted: human.
The test system of series [6] is MDA-MB-231 cells. In words: Wound healing (scratch) assay, MDA-MB-231. The class given is cell-based, human. Conditions: 2 μM, within 12 h, control 99.83 ± 0.08%. As for the experimental part: (§1) To analyze the influence of the tested compounds on tumor cell migration, MCF-7 and MDA-MB-231 (5 × 10^5) cells attached to the plate’s plastic bottom were separated using a silicone insert from special migration plates (Culture-insert 2Well 24, ibiTreat). When the insert was removed, a gap of […] (according to the manufacturer’s data) between the cells was left. After 24 h, the cells were washed twice with PBS to remove cell debris and floating cells, treated with 1 and 2 μM of psolusosides A (2) and L (6) and placed in the real-time live cell imaging system Juli Stage (NanoEntek, Seoul, South Korea). Cells treated with the culture medium only were used as the control. The cell migration was analyzed in real time (15 min for each cycle). For the MDA-MB-231 cells, observations were carried out for 12 h (until complete healing of the wound area in the control); for MCF-7 cells, this time was 48 h. The results were processed using the program Juli^TM Stat (NanoEntek, South Korea).

The subject of series [7] is MCF-7 cells. In words: Colonogenic (colony formation) assay, MCF-7. Format: cell-based. Conditions: Homo sapiens, MCF7, 336 h, 14 days. As to the method:
(§2) The cancer cells (MDA-MB-231, MCF-7 and T-47D lines) were cultured on 6-well plates at a density of 1 × 10^3 per well in control media (MEM media, 10% FBS, 10,000 U/mL of penicillin and […] of streptomycin) or in media supplemented with different concentrations of the glycosides. The cells were incubated for 14 days at 37 °C in a 5% CO2 humidified incubator. Then, the colonies were fixed with methanol (25 min), stained with a 0.5% solution of crystal violet (25 min), washed with H2O and dried in air. Counting of the grown colonies was carried out using a BIO-PRINT-Cx4 Edge-Fixed Pad-Container (Vilber, Collegien, France) device and using the software Bio-Vision SOFTWARE User and service manual-v18.01 (Vilber, Collegien, France). The results are presented as % of colony inhibition in relation to the control.

For series [8], the system named is MDA-MB-231 cells. In words: Colonogenic (colony formation) assay, MDA-MB-231. The class given is cell-based. Conditions: Homo sapiens, 336 h, 14 days, read-out: inhibition of the growth of colonies. As to the method: as §2
The test system of series [9] is non-transformed epithelial cells of the mammary gland MCF-10A. In words: in vitro. The class given is cell-based, human.
Series [10] deals with MCF-7 cells. In words: Wound healing (scratch) assay, MCF-7. The class given is cell-based, human. Conditions: 1 and 2 μM, within 48 h, control migrated by 84.60 ± 2.12%. As to the method:
as §1

[11] abbreviates: Homo sapiens, MDA-MB-231, 24 h, read-out: Cytotoxicity, IC50 µM MDA-MD-231.
Where [12] appears, read: Homo sapiens, MCF7, 24 h, read-out: Cytotoxicity, IC50 µM MCF-7.
The mark [13] stands for this setting: Homo sapiens, T47D, 24 h, read-out: Cytotoxicity, IC50 µM T-47D.

As to `C=C(C)CCC[C@]1(C)OC(=O)[C@]23CC[C@@H]4C(=CC[C@H]5C(C)(C)[C@@H](O[C@@H]6OC[C@@H](O[C@@H]7O[C@H](CO)[C@@H](O)[C@H](O)[C@H]7OS(=O)(=O)[O-])[C@H](O)[C@H]6O[C@@H]6O[C@H](CO)[C@@H](O[C@@H]7O[C@H](COS(=O)(=O)[O-])[C@@H](O)[C@H](O)[C@H]7O)[C@H](O)[C@H]6O)CC[C@]45C)[C@]2(C)CC(=O)[C@@H]31.[Na+].[Na+]` [peronioside A (1), 3β-O-{6-O-sodium-sulfate-β-D-glucopyranosyl-(1→4)-β-D-glucopyranosyl-(1→2)-[2-O-sodium-sulfate-β-D-glucopyranosyl-(1→4)]-β-D-xylopyranosyl}-16-oxoholosta-7,25-diene], the “hemolytic activity (result in words)” value in [1] is on record as “moderate hemolytic activity”. Moreover, the IC50 (commonly the concentration that gives 50% inhibition) in [1] is 30.8 ± 1.01 µM; in series [2] (setting [11]) it was more than 50 µM; in series [3] (setting [12]), more than 50 µM; in [4] (setting [13]), more than 50 µM. This molecule registered a half-maximal inhibitory concentration (IC50) at 24 h in series [5] of more than 50 µM.
Regarding `C=C(C)CCC[C@]1(C)OC(=O)[C@]23CC=C4[C@@H](CC[C@H]5C(C)(C)[C@@H](O[C@@H]6OC[C@@H](O)[C@H](O)[C@H]6O[C@@H]6O[C@H](C)[C@@H](O[C@@H]7O[C@H](COS(=O)(=O)[O-])[C@@H](O)[C@H](O[C@@H]8O[C@H](COS(=O)(=O)[O-])[C@@H](O)[C@H](OC)[C@H]8O)[C@H]7O)[C@H](O)[C@H]6O)CC[C@]45C)[C@]2(C)CC(=O)[C@@H]31.[Na+].[Na+]` [psolusoside A (2), psolusoside A], the IC50 in [1] came to 1.05 ± 0.12 µM; in series [2] (setting [11]), 6.09 ± 0.87 µM; in [2] (Homo sapiens, MDA-MB-231, MTT assay, 48 h incubation, read-out: IC50 against MDA-MB-231 cells (antiproliferative effect)), 3.87 ± 0.38 µM; in series [2] (Homo sapiens, MDA-MB-231, MTT assay, 72 h incubation, read-out: IC50 against MDA-MB-231 cells (antiproliferative effect)) it was 3.27 ± 0.27 µM; in series [3] (setting [12]), 11.2 ± 0.4 µM; in series [4] (setting [13]), 9.52 ± 0.13 µM. For the same molecule, the “Selectivity Index MDA-MB-231” value is recorded as 8.21 in series [2] (24 h of exposition), 2.18 in series [2] (48 h of exposition) and 2.09 in series [2] (72 h of exposition). Also, the figures for the “Selectivity Index MCF-7” value in series [3] (24 h of exposition), in [3] (48 h of exposition) and in series [3] (72 h of exposition) were 4.47, 1.84 and 0.59, respectively. Moreover, the “overgrowth of the wound area (migration)” value in series [6] came to 30.01 ± 0.16%. Moreover, the inhibition (in general, the change of the read-out against control, counted positive when it falls) at 1 µM in series [7] (1 μM) was 33.8 ± 2.64%; in [8] (1 μM), 88.76 ± 0.81%. In series [7] (2 μM), this molecule displayed an inhibition at 2 µM of 54.9 ± 1.92%. Also, in series [7] (5 μM), 5 µM produced 96.88 ± 0.96% inhibition. The entries for the “Selectivity Index T-47D” value in series [4] (24 h of exposition), in [4] (48 h of exposition) and in series [4] (72 h of exposition) were 5.25, 0.86 and 0.76, respectively. For the same molecule, in series [8] (0.5 μM), the inhibition at 0.5 µM amounted to 40.6 ± 5.62%. In addition, the “cytotoxicity to non-transformed MCF-10A cells (result in words)” value in [9] was “not cytotoxic”. Also, the IC50 at 24 h in [5] is more than 50 µM. In addition, the “reduction of the migration of cells to the scratch area” value in series [10] is listed as 33–42%.
Turning to `C=C(C)CCC[C@](C)(OC(C)=O)[C@H]1[C@@H]2C[C@@]3(C)C4=CC[C@H]5C(C)(C)[C@@H](O[C@@H]6OC[C@@H](O[C@@H]7O[C@H](CO)[C@@H](O)[C@H](O)[C@H]7OS(=O)(=O)[O-])[C@H](O)[C@H]6O[C@@H]6O[C@H](CO)[C@@H](O[C@@H]7O[C@H](COS(=O)(=O)[O-])[C@@H](O)[C@H](O)[C@H]7O)[C@H](O)[C@H]6O)CC[C@]5(C)C4CC[C@]13C(=O)O2.[Na+].[Na+]` (stereo partly drawn) [psolusoside B (3), psolusoside B], the “hemolytic activity (result in words)” value in series [1] is “almost not active”. Besides, the IC50 in [1] is 74.6 ± 1.21 µM; in series [2] (setting [11]), more than 50 µM; in series [3] (setting [12]) it was more than 50 µM; in series [4] (setting [13]) it was more than 50 µM. Further, the IC50 at 24 h in [5] is more than 50 µM.
Take `C=C(C)CCC[C@]1(C)OC(=O)[C@]23CC=C4[C@@H](CC[C@H]5C(C)(C)[C@@H](O[C@@H]6OC[C@@H](O)[C@H](O)[C@H]6O[C@@H]6O[C@H](CO)[C@@H](O[C@@H]7O[C@H](COS(=O)(=O)O)[C@@H](O)[C@H](O[C@@H]8O[C@H](COS(=O)(=O)O)[C@@H](O)[C@H](OC)[C@H]8O)[C@H]7O)[C@H](O)[C@H]6O)CC[C@]45C)[C@]2(C)CC(=O)[C@@H]31` [psolusoside G (4), psolusoside G]: the IC50 was determined as 2.7 ± 0.09 µM in [1], 11 ± 0.36 µM in [2] (setting [11]), 11.4 ± 0.36 µM in series [3] (setting [12]) and 16 ± 1.17 µM in [4] (setting [13]). Also, the IC50 at 24 h in series [5] was more than 50 µM.
For `C=C(C)CCC[C@]1(C)OC(=O)[C@]23CCC4C(=CC[C@H]5C(C)(C)[C@@H](O[C@@H]6OC[C@@H](O[C@@H]7O[C@H](COS(=O)(=O)O)[C@@H](O)[C@H](O)[C@H]7O)[C@H](O)[C@H]6O[C@@H]6OC[C@@H](O[C@@H]7O[C@H](COS(=O)(=O)O)[C@@H](O)[C@H](O)[C@H]7O)[C@H](O)[C@H]6O)CC[C@]45C)[C@]2(C)C[C@H](OC(C)=O)[C@@H]31` (stereo partly drawn) [psolusoside I (5), psolusoside I] the same measures were 8.49 ± 0.49 µM, 33.1 ± 0.85 µM, more than 50 µM, 19.6 ± 0.61 µM and more than 50 µM.
As to `C=C(C)CCC[C@]1(C)OC(=O)[C@]23CC=C4[C@@H](CC[C@H]5C(C)(C)[C@@H](O[C@@H]6OC[C@@H](O[C@@H]7O[C@H](COS(=O)(=O)O)[C@@H](O)[C@H](O)[C@H]7O)[C@H](O)[C@H]6O[C@@H]6O[C@H](CO)[C@@H](O[C@@H]7O[C@H](COS(=O)(=O)O)[C@@H](O)[C@H](O[C@@H]8O[C@H](COS(=O)(=O)O)[C@@H](O)[C@H](OC)[C@H]8O)[C@H]7O)[C@H](O)[C@H]6O)CC[C@]45C)[C@]2(C)CC(=O)[C@@H]31` [psolusoside N (7), psolusoside N], the IC50 in [2] is 39.3 ± 2.89 µM; in series [3] it was more than 50 µM; in series [4], more than 50 µM; in series [9] it was more than 50 µM.
With `C=C(C)CCC[C@]1(C)OC(=O)[C@]23CC=C4[C@@H](CC[C@H]5C(C)(C)[C@@H](O[C@@H]6OC[C@@H](O[C@@H]7O[C@H](COS(=O)(=O)O)[C@@H](OS(=O)(=O)O)[C@H](O)[C@H]7O)[C@H](O)[C@H]6O[C@@H]6O[C@H](C)[C@@H](O[C@@H]7O[C@H](COS(=O)(=O)O)[C@@H](O)[C@H](O[C@@H]8O[C@H](COS(=O)(=O)O)[C@@H](O)[C@H](OC)[C@H]8O)[C@H]7O)[C@H](O)[C@H]6O)CC[C@]45C)[C@]2(C)CC(=O)[C@@H]31` [psolusoside P (8), psolusoside P], the IC50 in [2] was 33.3 ± 1.31 µM; in series [3], more than 50 µM; in series [4], 37.1 ± 0.83 µM; in [9], more than 50 µM.
